According to the NIST ThermoML archive (doi:10.1016/j.jct.2012.01.028):
± gives the expanded uncertainty stated by the source.

Conditions: 101.33 kPa, Liquid; for electrical conductivity: Alternating current cell with electrodes; for speed of sound: Sing-around technique in a fixed-path interferometer; for mass density: Vibrating tube method

## CCCCn1cc[n+](C)c1.F[P-](F)(F)(F)(F)F [1-butyl-3-methylimidazolium hexafluorophosphate]
293.15 K
  electrical conductivity: 0.137 ± 0.0082 S/m
  speed of sound: 1454.9 ± 3.1 m/s
  mass density: 1371.61 ± 4.7 kg/m3
298.15 K
  electrical conductivity: 0.183 ± 0.011 S/m
  speed of sound: 1442.6 ± 3.1 m/s
  mass density: 1367.65 ± 4.7 kg/m3
303.15 K
  electrical conductivity: 0.224 ± 0.013 S/m
  speed of sound: 1430.7 ± 3.1 m/s
  mass density: 1363.13 ± 4.7 kg/m3
308.15 K
  electrical conductivity: 0.267 ± 0.016 S/m
  speed of sound: 1419 ± 3.1 m/s
  mass density: 1359.04 ± 4.6 kg/m3
313.15 K
  electrical conductivity: 0.314 ± 0.019 S/m
  speed of sound: 1407.6 ± 3.1 m/s
  mass density: 1354.93 ± 4.6 kg/m3
318.15 K
  electrical conductivity: 0.384 ± 0.023 S/m
  speed of sound: 1396.3 ± 3.1 m/s
  mass density: 1350.83 ± 4.6 kg/m3
323.15 K
  electrical conductivity: 0.459 ± 0.028 S/m
  speed of sound: 1385.2 ± 3.1 m/s
  mass density: 1346.72 ± 4.6 kg/m3
